Measurements: US9447033B2, “Potassium channel blockers” (Japan Tobacco Inc., priority 2008, dated 2016)

Experiments:
hKv1.5 = hKv1.5 (Homo sapiens, UniProt P22460); test: Kv1.5 Autopatch electrophysiology (whole cell); type: cell-based; conditions: hKv1.5 current, test concentration not given, read-out: hKv1.5 % Inh.
Experimental: Kv1.5 Autopatch Electraphysiogogy Method
The external bathing solution contained (in mM): 150 NaCl, 10 KCl, […], 3 MgCl2, 1 CaCl2, 10 HEPES, pH 7.4. Patch pipettes were filled with an electrode solution of composition (in mM): 160 KCl, 0.5 MgCl2, 10 HEPES, 1 EGTA, pH 7.4 with KOH.
Compounds were dissolved in DMSO (100%) and made up in the external bather at a concentration of 1 μM. All experiments were conducted at room temperature (22-24° C.).
A cell suspension (10 ml), with a density of 100,000 cells/ml, was aliquoted into a 15 ml centrifuge tube and transferred to an incubator (37° C., 5% CO2) for approximately one hour before use. Following 60 min incubation, a tube was taken and centrifuged at 1000 rpm for 4 mins at mom temperature. 9.5 ml supernatant was thence discarded, leaving a cell pellet a the bottom of the tube. The pellet was then resuspended using 100 μl of cold (4° C.), filtered (0.22 μm), 0.2% BSA/bather solution (0.02 g BSA/10 ml bather). The bottom of the tube was manually agitated gently until the solution became cloudy with cells. The 100 μl cell resuspension solution was then stored on the bench at 4° C. (using a Peltier-based temperature control device) until used.
A length of capillary glass (1B150F-4, WPI) was dipped into the cell suspension solution, such that ˜3 cm column of fluid was taken up by capillary action. A Ag/AgCl wire was dropped into the non-dipped end of the capillary also. The outside of the solution-filled end of the capillary was then dried and the capillary was loaded into the AutoPatch™.
Borosilicate glass patch pipettes (from 1.5 mm OD, thin-walled filamented, GC150-TF capillary glass, Harvard) were pulled using a DMZ pipette puller (Zeitz instruments), and were back-filled using the internal pipette solution, being careful that no bubbles remain at the tip or in the body of the pipette. Patch pipettes typically had resistances of 2.3-3.5 MΩ. Once filled, the pipette tip and a proportion of the shaft (˜15 mm) were dipped into Sigmacote (Sigma). The recording pipette was then loaded into the AutoPatch™. Automated patch-clamping was initiated by the operator, but thereafter AutoPatch.exe continued the experiment providing that pre-set conditions and criteria were satisfied.
Whole cell patch-clamp recordings were made using the AutoPatch™ rig, which incorporated an EPC9 amplifier (HEKA, Germany) under control of Pulse software (v8.54, HEKA, Germany), a motion controller with 2 translators (Newport, UK), valve controller (VFI) and a c-level suction device all at room temperature (22-24° C.). This equipment was completely under the control of AutoPatch.exe and operator intervention was only made when there was a requirement to refill the drug reservoirs or to prevent the loss of a cell due to a technical error. Cells with an Rseries greater than 18 MΩ were discounted from the experiment.
Qualification stages prior to perfusion and drug application ensured that the observed current met the criteria for the experiment. Only those cells with an 1K>500 pA were used for experiments. Cells were continuously perfused with external solution at a flow rate of 1.8-2 ml/minute. […]
Electrophysiology voltage-step protocols and analysis of data was performed as follows. […] Currents were analysed using Pulsefit software (v8.54, HEKA, Germany), with the total charge measured during the whole of the voltage step. […]

human Kv1.3 = target: T1, human Kv1.3 (Homo sapiens, UniProt P22001); test: Kv1.3 Autopatch electrophysiology (whole cell); type: cell-based; conditions: compound at 1 μM; inhibition of charge movement relative to control; room temperature; read-out: hKv1.3 % Inh.
T1 construct: expressed in transfected cells
T1 sequence (P22001 whole entry): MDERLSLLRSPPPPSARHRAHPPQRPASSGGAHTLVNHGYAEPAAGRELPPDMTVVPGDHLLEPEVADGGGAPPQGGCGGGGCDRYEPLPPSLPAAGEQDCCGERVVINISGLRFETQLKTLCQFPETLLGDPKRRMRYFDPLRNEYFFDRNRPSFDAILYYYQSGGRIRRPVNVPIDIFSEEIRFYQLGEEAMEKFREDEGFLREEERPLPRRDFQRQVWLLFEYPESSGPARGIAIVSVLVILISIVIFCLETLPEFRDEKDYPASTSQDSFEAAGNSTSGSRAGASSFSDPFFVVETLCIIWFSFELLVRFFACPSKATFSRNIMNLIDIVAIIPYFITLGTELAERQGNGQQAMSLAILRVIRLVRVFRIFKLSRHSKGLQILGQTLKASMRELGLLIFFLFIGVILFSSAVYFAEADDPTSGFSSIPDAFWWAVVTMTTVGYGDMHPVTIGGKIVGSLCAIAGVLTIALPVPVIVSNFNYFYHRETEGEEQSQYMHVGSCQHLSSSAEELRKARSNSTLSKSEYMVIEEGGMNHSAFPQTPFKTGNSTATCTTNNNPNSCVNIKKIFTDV
Experimental: Kv1.3 Autopatch Electrophysiology Method
Cells stably transfected with cDNA for human Kv1.3 (in pcDNA3.1) were grown in Ex-cell 302 serum-free medium for CHO cells, supplemented with 10 μl/ml [100×] glutamine, 500 μg/ml G418 ([…]), and 1% HT supplement (50×, hypoxanthine and thymidine). Compounds were tested on these cells using the AutoPatch technology in whole cell mode.
The external bathing solution contained (in mM): 150 NaCl, 10 KCl, MgCl2, 3 CaCl2, 10 HEPES, pH 7.4 with NaOH. Patch pipettes were filled with an electrode solution of composition (in mM): 100 K-Gluconate, 20 KCl, 1 MgCl2, CaCl2, 10 HEPES, 11 EGTA, 5 ATP-Na2, 2 Glutathione pH 7.2 with KOH.
Compounds were dissolved in DMSO (100%) and made up in the external bather at a concentration of 1 μM immediately prior to use. All experiments were conducted at room temperature.
A cell suspension (10 ml), with a density of 6×10^6 cells, was aliquoted into a 15 ml centrifuge tube and stored at 4° C. before use. Prior to use a tube was taken and centrifuged at 1000 rpm for 4 mins at room temperature. The supernatant was then discarded, leaving a cell pellet at the bottom of the tube. The pellet was then resuspended using 1 ml of cold (4° C.), filtered (0.22 μm), 0.05% BSA/bather solution (0.05 g BSA/100 ml bather). The bottom of the tube was manually agitated followed by gentle tituration. The cell suspension was then placed in the AutoPatch™ temperature controlled cell-hotel at 14° C. and regularly titurated.
A length of Teflon capillary tubing was dipped into the cell suspension solution, and a column of fluid was taken up by negative pressure. The column of fluid was in electrically connectivity with a Ag/AeCl reference electrode. Borosilicate glass patch pipettes (from 1.5 mm OD, thin-walled filamented, GC150-TF capillary glass, Harvard) were pulled using a DMZ pipette puller (Zeitz Instruments), and were back-filled using the internal pipette solution, being careful that no bubbles remained at the tip or in the body of the pipette. Patch pipettes typically had resistances of 2.5-3.5 MΩ. Once filled, the pipette tip and a proportion of the shaft (˜15 mm) were dipped into Sigmacote (Sigma). The recording pipettes were placed in a multiwell array and mounted on the AutoPatch™ machine. Automated patch-clamping and drug-application was initiated by the operator, but thereafter AutoPatch.exe continued the experiment providing that pre-set conditions and criteria were satisfied.
Whole cell patch-clamp recordings were made using the AutoPatch™ rig, which incorporated an EPC9 or EPC10 amplifier (HEKA, Germany) under control of Pulse software (v8.54 or v8.76, HEKA, Germany), a cell applicator, automated drug application system (DAS), valve controller (VFI) and a suction device all at room temperature. This equipment was completely under the control of AutoPatch.exe and operator intervention was only made when there was a requirement to refill the bather reservoirs or to prevent the loss of a cell due to a technical error. […]
Electrophysiology voltage-step protocols and analysis of data was performed as follows. […] Online analysis of the hKv1.3 current during the application of compounds was performed by the Pulse (v8.54 or v8.76, HEKA, Germany), Excel (Microsoft, USA) and AutoPatch™ software, with the total charge measured during the whole of voltage step. Inhibition of charge movement in the presence of drug was calculated relative to control.

hKv1.5, sequence (P22460 whole entry): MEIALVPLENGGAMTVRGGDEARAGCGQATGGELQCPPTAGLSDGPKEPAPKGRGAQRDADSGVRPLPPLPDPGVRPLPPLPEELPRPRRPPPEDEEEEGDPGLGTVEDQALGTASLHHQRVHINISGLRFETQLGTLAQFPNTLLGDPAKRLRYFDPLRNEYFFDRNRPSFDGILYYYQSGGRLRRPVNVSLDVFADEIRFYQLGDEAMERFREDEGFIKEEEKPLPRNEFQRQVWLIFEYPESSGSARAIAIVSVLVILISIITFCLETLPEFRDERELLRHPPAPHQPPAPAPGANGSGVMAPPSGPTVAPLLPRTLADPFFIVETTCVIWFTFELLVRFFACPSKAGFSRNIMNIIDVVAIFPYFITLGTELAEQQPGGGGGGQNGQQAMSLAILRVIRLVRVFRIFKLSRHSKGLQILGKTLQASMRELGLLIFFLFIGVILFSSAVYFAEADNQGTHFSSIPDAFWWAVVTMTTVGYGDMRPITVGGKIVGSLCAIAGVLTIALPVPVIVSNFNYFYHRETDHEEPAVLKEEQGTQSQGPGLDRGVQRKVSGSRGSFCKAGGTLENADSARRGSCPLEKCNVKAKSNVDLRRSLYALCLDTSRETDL

Q: With `CC(C)NC(=O)c1cccc(N(Cc2ccccc2)S(=O)(=O)c2cccnc2)c1` [Example 3, 3-[Benzyl-(pyridine-3-sulfonyl)-amino]-N-isopropyl-benzamide] as the molecule, how does the inhibition at 1 µM (hKv1.5) read?
A: 52%

Q: And the inhibition at 1 µM (human Kv1.3)?
A: 92%

Q: What does the source list for `CC(=O)Nc1ccc(S(=O)(=O)N(Cc2ccccc2)c2cccc(C(=O)NC(C)C)c2)cc1` [Example 5, 3-[(4-Acetylamino-benzenesulfonyl)-benzyl-amino]-N-isopropyl-benzamide]?
A: inhibition at 1 µM (hKv1.5): 18%; inhibition at 1 µM (human Kv1.3): 45%

Q: For `CC(C)NC(=O)c1cccc(N(Cc2ccc(Cl)cc2)S(=O)(=O)c2ccnn2C)c1` [Example 7, 3-[(4-Chloro-benzyl)-(2-methyl-2H-pyrazole-3-sulfonyl)-amino]-N-isopropyl-benzamide], which inhibition at 1 µM (hKv1.5) is on record?
A: 54%

Q: And the inhibition at 1 µM (human Kv1.3)?
A: 57%

Q: Which inhibition at 1 µM (hKv1.5) does the source give for `Cn1ccc(S(=O)(=O)N(Cc2ccc(Cl)cc2)c2cccc(C(=O)NCCO)c2)n1` [Example 1, 3-[(4-Chloro-benzyl)-(1-methyl-1H-pyrazole-3-sulfonyl)-amino]-N-(2-hydroxy-ethyl)-benzamide] here?
A: 48%

Q: And the inhibition at 1 µM (human Kv1.3)?
A: 86%

Q: Which results are given for `O=C(Nc1ccc2cn[nH]c2c1)c1cccc(N(Cc2ccccc2)S(=O)(=O)c2ccccc2)c1` [Example 4, 3-(Benzenesulfonyl-benzyl-amino)-N-(1H-indazol-6-yl)-benzamide]?
A: inhibition at 1 µM (hKv1.5): 99%; inhibition at 1 µM (human Kv1.3): 88%
